# Patent US11844794B2, “Pharmaceutical compositions” (ADEPTIO PHARMACEUTICALS LIMITED, priority 2017, dated 2023)
# Assays:
# [1] = plasma concentrations after oral dosing to human volunteers; format: in vivo
# Method: (+)-α-Dihydrotetrabenazine in amounts was administered by oral dosing to five human volunteers. In four of the volunteers, blood sample were taken at 30, 60, 120 and 180 minutes after drug administration. Blood samples were not taken from the fifth volunteer. At 60 minutes after drug administration, PET scans were initiated and these were stopped at 120 minutes after drug administration. The experiment was carried out at dosages of 7.5 mg, 15 mg and 22.5 mg.
# amphetamine-induced rats = experiment: amphetamine-induced locomotor activity, open field test; format: in vivo, rat
# Method: All animal experiments were carried out according to the National Institute of Health (NIH) guidelines for the care and use of laboratory animals, and approved by the National Animal Experiment Board, Finland. Male CD (Charles River Laboratories, Germany) at weight range of 200-250 g (165-200 g upon arrival) were used for the experiments. Animals were housed at a standard temperature (22±1° C.) and in a light-controlled environment (lights on from 7 am to 8 pm) with ad libitum access to food and water.
# Locomotor activity of the rats was tested in open field arena. The open field test was performed during the rat light cycle and under a normal lighting evenly distributed to the test chambers. The paths of the rats were recorded by activity monitor (Med. Associates Inc.).
# Dosing the vehicle, vehicle-amphetamine, (+)-α-DHTBZ or risperidone was done prior to LMA test. The rats were placed in the centre of the arena, and the path was recorded for 60 minutes.
# Animals were grouped as follows: • Group 1: 10 rats treated with Vehicle (t=0 min) and Vehicle (t=30 min) • Group 2: 10 rats treated with Vehicle (t=0 min) and Amphetamine (t=30 min) • Group 3: 10 rats treated with (+)-α-DHTBZ 0.5 mg/kg (t=0 min) and Amphetamine (t=30 min) • Group 4: 10 rats treated with (+)-α-DHTBZ 1 mg/kg (t=0 min) and Amphetamine (t=30 min) • Group 5: 10 rats treated with (+)-α-DHTBZ 1.5 mg/kg (t=0 min) and Amphetamine (t=30 min) • Group 6: 10 rats treated with (+)-α-DHTBZ 2 mg/kg (t=0 min) and Amphetamine (t=30 min) • Group 7: 10 rats treated with risperidone 1 mg/kg (t=0 min) and Amphetamine (t=30 min)
# Rats dosed with either vehicle, (+)-α-DHTBZ 0.5 mg/kg, (+)-α-DHTBZ 1 mg/kg, (+)-α-DHTBZ 1.5 mg/kg, (+)-α-DHTBZ 2 mg/kg or Risperidone 1 mg/kg were subjected to LMA testing first for 30 min and then for 60 minutes after vehicle or amphetamine challenge. Resulting locomotor activity was evaluated in 3 min bins and as a total over the testing period.
# Rats dosed with either vehicle, (+)-α-DHTBZ 0.5 mg/kg, (+)-α-DHTBZ 1 mg/kg, (+)-α-DHTBZ 1.5 mg/kg, (+)-α-DHTBZ 2 mg/kg or Risperidone 1 mg/kg were subjected to LMA testing first for 30 min and then for 60 minutes after vehicle or amphetamine challenge. Resulting stereotypic activity was evaluated in 3 min bins and as a total over the testing period. […]
# [2] = Study 1, all the tested doses (0.5, 1, 1.5 and 2 mg/kg)
smiles,measurement,setting,value
"COc1cc2c(cc1OC)[C@H]1C[C@@H](O)[C@H](CC(C)C)CN1CC2 [(+)-α-dihydrotetrabenazine, (2R,3R,11bR)-3-isobutyl-9,10-dimethoxy-1,3,4,6,7,11b-hexahydro-2H-pyrido[2,1,a]isoquinolin-2-01]",concentration at 1 h,"[1]; human, plasma, subject 1 (112 kg), 7.5 mg oral",0.94 ng/mL
same,concentration at 1 h,"[1]; human, plasma, subject 1 (112 kg), 22.5 mg oral",18 ng/mL
same,concentration at 2 h,"[1]; human, plasma, subject 2 (76 kg), 7.5 mg oral",14 ng/mL
same,concentration at 0.5 h,"[1]; human, plasma, subject 3 (129 kg), 15 mg oral, 0.5 h",1.2 ng/mL
same,concentration at 2 h,"[1]; human, plasma, subject 3 (129 kg), 15 mg oral",12 ng/mL
same,plasma concentration of (+)-α-dihydrotetrabenazine,"[1]; subject 1 (112 kg), 7.5 mg oral, 0.5 h, BLQ = below level of quantitation",BLQ
same,total stereotypic behaviour compared to vehicle-vehicle group,"amphetamine-induced rats; Study 1, 0.5 mg/kg plus amphetamine, male CD rats",significantly different
same,total stereotypic behaviour compared to vehicle-amphetamine group,"amphetamine-induced rats; Study 1, 0.5 mg/kg, male CD rats",significantly different
same,total stereotypic behaviour compared to vehicle-amphetamine group,"amphetamine-induced rats; Study 1, 1 mg/kg, male CD rats",significantly different
same,total stereotypic behaviour compared to vehicle-vehicle group,"amphetamine-induced rats; Study 1, 1.5 mg/kg plus amphetamine, male CD rats",significantly different
same,total stereotypic behaviour compared to vehicle-amphetamine group,"amphetamine-induced rats; Study 1, 1.5 mg/kg, male CD rats",significantly different
same,total stereotypic behaviour compared to vehicle-amphetamine group,"amphetamine-induced rats; Study 1, 2 mg/kg, male CD rats",significantly different
same,locomotor activity compared to vehicle-amphetamine group,amphetamine-induced rats; [2],lower locomotor activity
same,stereotypic behaviour compared to vehicle-amphetamine group,amphetamine-induced rats; [2],reduced stereotypic behaviour
same,effect suggested by both measured parameters,"amphetamine-induced rats; Study 1, locomotor activity and stereotypic behaviour",sedative effect similar to risperidone
same,total stereotypic behaviour compared to vehicle-amphetamine group,"amphetamine-induced rats; Study 2, 0.1 mg/kg, male CD rats",significantly different
same,total stereotypic behaviour compared to vehicle-amphetamine group,"amphetamine-induced rats; Study 2, 0.25 mg/kg, male CD rats",significantly different
same,total distance travelled compared to vehicle-amphetamine group,"amphetamine-induced rats; Study 2, 0.25 mg/kg, male CD rats, listed as (+)-α-DHTBZ",lower locomotor activity
same,stereotypic behaviour compared to vehicle-amphetamine group,"amphetamine-induced rats; Study 2, both the tested doses (0.1 and 0.25 mg/kg)",reduced stereotypic behaviour
